Laboratory results reported in patent US20220348558A1, “INHIBITORS OF ENCEPHALITIC ALPHAVIRUSES” (priority 2019, published 2022).

Assays:
VEEV TC83 = assay: microbe, parasite or virus in culture; format: cell-based; conditions: Venezuelan equine encephalitis virus, Vero 76, 48 h, read-out: VEEV TC83 EC50 nM
WEEV California = assay: microbe, parasite or virus in culture; format: cell-based; conditions: Western equine encephalitis virus, Vero 76, 48 h, read-out: WEEV California EC50 nM

Compound | EC50 (VEEV TC83) | EC50 (WEEV California)
COc1ccc(-n2c([C@@H]3C[C@@H]4CCCC[C@@H]4N3)nc3c(-c4ccc(C)nc4)cc(C#N)cc3c2=O)cc1F [Example 139, 3-(3-fluoro-4-methoxyphenyl)-8-(6-methylpyridin-3-yl)-2-((2S,3aS,7aS)-octahydro-1H-indol-2-yl)-4-oxo-3,4-dihydroquinazoline-6-carbonitrile] | 1 to 50 nM | 51 to 150 nM
COc1ccc(-n2c(C3CCCN3)nc3c(-c4ccc(NS(C)(=O)=O)cc4)cc(C#N)cc3c2=O)cc1F (stereo not drawn) [Example 157, N-(4-(6-Cyano-3-(3-fluoro-4-methoxyphenyl)-4-oxo-2-(pyrrolidin-2-yl)-3,4-dihydroquinazolin-8-yl)phenyl)methanesulfonamide] | 51 to 150 nM | 51 to 150 nM
COc1ccc(-n2c(-c3cnco3)nc3c(-c4ccc(C)nc4)cc(C#N)cc3c2=O)cc1F [Example 198, 3-(3-fluoro-4-methoxyphenyl)-8-(6-methylpyridin-3-yl)-2-(oxazol-5-yl)-4-oxo-3,4-dihydroquinazoline-6-carbonitrile] | > 1000 nM | > 1000 nM
COCCOc1ccc(-c2cc(C#N)cc3c(=O)n(-c4ccc(OC)c(F)c4)c(C4CCCN4)nc23)cc1 (stereo not drawn) [Example 154, 3-(3-Fluoro-4-methoxyphenyl)-8-(4-(2-methoxyethoxy)phenyl)-4-oxo-2-(pyrrolidin-2-yl)-3,4-dihydroquinazoline-6-carbonitrile] | 1 to 50 nM | 1 to 50 nM
COc1ccc(-n2c([C@H]3C[C@H](F)CN3)nc3c(C)cc(C#N)cc3c2=O)cc1 [Example 53, 2-((2R,4S)-4-fluoropyrrolidin-2-yl)-3-(4-methoxyphenyl)-8-methyl-4-oxo-3,4-dihydroquinazoline-6-carbonitrile] | 151 to 500 nM | 151 to 500 nM
Cc1ccc(-n2c([C@H]3CCCN3)nc3ccc([N+](=O)[O-])cc3c2=O)cc1 [Example 37, (R)-6-nitro-2-(pyrrolidin-2-yl)-3-(p-tolyl)quinazolin-4 (3H)-one] | 1 to 50 nM | 501 to 1000 nM
O=c1c2cc([N+](=O)[O-])ccc2nc([C@H]2CCCN2)n1-c1ccc(OC(F)(F)F)cc1 [Example 44, (R)-6-nitro-2-(pyrrolidin-2-yl)-3-(4-(trifluoromethoxy)phenyl)quinazolin-4 (3H)-one] | > 1000 nM | > 1000 nM
COc1ccc(-n2c([C@H](C)N(C)C)nc3ccc([N+](=O)[O-])cc3c2=O)cc1 [Example 208, (S)-2-(1-(dimethylamino)ethyl)-3-(4-methoxyphenyl)-6-nitroquinazolin-4 (3H)-one] | 51 to 150 nM | 51 to 150 nM
COc1ccc(-n2c(-c3nccn3C)nc3c(-c4ccc(C)nc4)cc(C#N)cc3c2=O)cc1F [Example 203, 3-(3-fluoro-4-methoxyphenyl)-2-(1-methyl-1H-imidazol-2-yl)-8-(6-methylpyridin-3-yl)-4-oxo-3,4-dihydroquinazoline-6-carbonitrile] | 51 to 150 nM | 151 to 500 nM
COc1ccc(-n2c([C@@H]3CCCN3)nc3c(-c4ccncc4)cc([N+](=O)[O-])cc3c2=O)cc1F [Example 84, (S)-3-(3-fluoro-4-methoxyphenyl)-6-nitro-8-(pyridin-4-yl)-2-(pyrrolidin-2-yl) quinazolin-4 (3H)-one] | 1 to 50 nM | 1 to 50 nM
COc1ccc(-n2c([C@@H]3CCCN3)nc3c(Br)cc(C#N)cc3c2=O)cc1F [Example 97, (S)-8-bromo-3-(3-fluoro-4-methoxyphenyl)-4-oxo-2-(pyrrolidin-2-yl)-3,4-dihydroquinazoline-6-carbonitrile] | 1 to 50 nM | 1 to 50 nM
COc1ccc(-n2c(C3CCCN3)nc3c(-c4ccc(N5CCOCC5)nc4)cc(C#N)cc3c2=O)cc1F (stereo not drawn) [Example 124, 3-(3-fluoro-4-methoxyphenyl)-8-(6-morpholinopyridin-3-yl)-4-oxo-2-(pyrrolidin-2-yl)-3,4-dihydroquinazoline-6-carbonitrile] | 1 to 50 nM | 1 to 50 nM
COc1c(F)cc(-n2c(C3C[C@H](F)CN3)nc3c(-c4cc(C)nc(C)c4)cc(C#N)cc3c2=O)cc1F (stereo partly drawn) [Example 160, 3-(3,5-Difluoro-4-methoxyphenyl)-8-(2,6-dimethylpyridin-4-yl)-2-((4S)-4-fluoropyrrolidin-2-yl)-4-oxo-3,4-dihydroquinazoline-6-carbonitrile] | 51 to 150 nM | 51 to 150 nM
COc1ccc(-n2c(C3CCCN3Cc3ccc(F)cc3)nc3c(C)cc([N+](=O)[O-])cc3c2=O)cc1F (stereo not drawn) [Example 204, 3-(3-fluoro-4-methoxyphenyl)-2-(1-(4-fluorobenzyl)pyrrolidin-2-yl)-8-methyl-6-nitroquinazolin-4 (3H)-one] | 51 to 150 nM | 151 to 500 nM
N#Cc1cccc(-n2c([C@H]3CCCN3)nc3ccc([N+](=O)[O-])cc3c2=O)c1 [Example 21, (R)-3-(6-nitro-4-oxo-2-(pyrrolidin-2-yl)quinazolin-3 (4H)-yl)benzonitrile] | > 1000 nM | > 1000 nM
O=c1c2cc([N+](=O)[O-])ccc2nc([C@@H]2CCCN2)n1-c1ccc(OC(F)(F)F)cc1 [Example 46, (S)-6-nitro-2-(pyrrolidin-2-yl)-3-(4-(trifluoromethoxy)phenyl)quinazolin-4 (3H)-one] | > 1000 nM | > 1000 nM
COc1ccc(-n2c([C@@]3(C)CCCN3)nc3c(-c4ccc(C)nc4)cc(C#N)cc3c2=O)cc1F [Example 141, (R)-3-(3-fluoro-4-methoxyphenyl)-8-(6-methylpyridin-3-yl)-2-(2-methylpyrrolidin-2-yl)-4-oxo-3,4-dihydroquinazoline-6-carbonitrile] | 1 to 50 nM | 1 to 50 nM
COc1ccc(-n2c([C@H]3CCCN3)nc3c(-c4ccnc(F)c4)cc([N+](=O)[O-])cc3c2=O)cc1F [Example 90, (R)-3-(3-fluoro-4-methoxyphenyl)-8-(2-fluoropyridin-4-yl)-6-nitro-2-(pyrrolidin-2-yl) quinazolin-4 (3H)-one] | 1 to 50 nM | 1 to 50 nM
CN1CCC(N2CCC[C@@H]2c2nc3ccc([N+](=O)[O-])cc3c(=O)n2-c2ccccc2)CC1 [Example 4, (R)-2-(1-(1-methylpiperidin-4-yl)pyrrolidin-2-yl)-6-nitro-3-phenylquinazolin-4 (3H)-one] | 151 to 500 nM | > 1000 nM
COc1ccc(-n2c(C3CCCN3)nc3c(-c4ccc(N5CCOCC5)cc4)cc(C#N)cc3c2=O)cc1F (stereo not drawn) [Example 153, 3-(3-Fluoro-4-methoxyphenyl)-8-(4-morpholinophenyl)-4-oxo-2-(pyrrolidin-2-yl)-3,4-dihydroquinazoline-6-carbonitrile] | 1 to 50 nM | 1 to 50 nM
COc1ccc(-n2c([C@@H]3CCCN3)nc3ccc(F)c(F)c3c2=O)cc1 [Example 30, (S)-5,6-difluoro-3-(4-methoxyphenyl)-2-(pyrrolidin-2-yl) quinazolin-4 (3H)-one] | > 1000 nM | > 1000 nM
COc1ccc(-n2c([C@@H]3CCCN3)nc3ccc(C#N)cc3c2=O)cc1 [Example 15, (S)-3-(4-methoxyphenyl)-4-oxo-2-(pyrrolidin-2-yl)-3,4-dihydroquinazoline-6-carbonitrile] | 51 to 150 nM | 501 to 1000 nM
[N-]=[N+]=Nc1cccc(-n2c([C@H]3CCCN3)nc3ccc([N+](=O)[O-])cc3c2=O)c1 [Example 17, (R)-3-(3-azidophenyl)-6-nitro-2-(pyrrolidin-2-yl) quinazolin-4 (3H)-one] | 151 to 500 nM | > 1000 nM
COc1c(F)cc(-n2c(C3CCCN3)nc3c(C#CC(C)(C)O)cc(C#N)cc3c2=O)cc1F (stereo not drawn) [Example 193, 3-(3,5-Difluoro-4-methoxyphenyl)-8-(3-hydroxy-3-methylbut-1-yn-1-yl)-4-oxo-2-(pyrrolidin-2-yl)-3,4-dihydroquinazoline-6-carbonitrile] | 51 to 150 nM | 51 to 150 nM
Cc1ccc(-c2cc(C#N)cc3c(=O)n(-c4ccc(O)c(F)c4)c([C@H]4CCCN4)nc23)cn1 [Example 167, (R)-3-(3-fluoro-4-hydroxyphenyl)-8-(6-methylpyridin-3-yl)-4-oxo-2-(pyrrolidin-2-yl)-3,4-dihydroquinazoline-6-carbonitrile] | 51 to 150 nM | 151 to 500 nM
COc1c(F)cc(-n2c(C3CCCN3)nc3c(-c4ccc(C#CC(C)(C)O)cc4)cc(C#N)cc3c2=O)cc1F (stereo not drawn) [Example 170, 3-(3,5-difluoro-4-methoxyphenyl)-8-(4-(3-hydroxy-3-methylbut-1-yn-1-yl)phenyl)-4-oxo-2-(pyrrolidin-2-yl)-3,4-dihydroquinazoline-6-carbonitrile] | 51 to 150 nM | 51 to 150 nM
COc1ccc(-n2c([C@H]3CCCN3)nc3c([N+](=O)[O-])cccc3c2=O)cc1 [Example 47, (R)-3-(4-methoxyphenyl)-8-nitro-2-(pyrrolidin-2-yl)quinazolin-4 (3H)-one] | > 1000 nM | > 1000 nM
CN[C@H](C)c1nc2ccc([N+](=O)[O-])cc2c(=O)n1-c1ccc(OC)cc1 [Example 207, (R)-3-(4-methoxyphenyl)-2-(1-(methylamino)ethyl)-6-nitroquinazolin-4 (3H)-one] | 51 to 150 nM | 151 to 500 nM
N#Cc1cc(-c2ccc(C(F)(F)F)nc2)c2nc([C@H]3CCCN3)n(-c3ccc(O)c(F)c3)c(=O)c2c1 [Example 168, (R)-3-(3-fluoro-4-hydroxyphenyl)-4-oxo-2-(pyrrolidin-2-yl)-8-(6-(trifluoromethyl)pyridin-3-yl)-3,4-dihydroquinazoline-6-carbonitrile] | 51 to 150 nM | 151 to 500 nM
COc1c(F)cc(-n2c(C34CC(CN3)C4)nc3c(-c4cc(C)nc(C)c4)cc(C#N)cc3c2=O)cc1F [Example 174, 2-(2-azabicyclo[2.1.1]hexan-1-yl)-3-(3,5-difluoro-4-methoxyphenyl)-8-(2,6-dimethylpyridin-4-yl)-4-oxo-3,4-dihydroquinazoline-6-carbonitrile] | 51 to 150 nM | 51 to 150 nM
